Columns and labels:
RON = RON (Homo sapiens, UniProt Q04912); experiment: Evaluation of inhibitory activity against RON (TR-FRET); type: biochemical; conditions: TR-FRET enzyme assay, RON protein, ULight-labeled Poly GT substrate, ATP
Procedure: In order to measure the inhibitory activity of each of the compounds of Examples against RON, the IC50 of each of the compounds was measured using Time-resolved fluorescence energy transfer (TR-FRET).
(§1) Specifically, the compound was prepared to a concentration of 1 mM in 100% DMSO and was diluted 10 times in a stepwise manner through 3-fold dilution. The compound (2 μL) diluted in a stepwise manner was added to a 96-well-plate containing 48 μL of a 1× kinase reaction buffer (50 mM HEPES (pH 7.4), 0.01% Tween-20, 5 mM DTT, 0.5 mM Na3VO4, 2 mM EGTA, 10 mM MgCl2).
The RON protein was diluted to a concentration of 49.3 nM in a RON storage buffer (50 mM Tris-HCl (pH 7.5), 150 mM NaCl, 0.5 mM EDTA, 0.02% Triton X-100), and then diluted again to a concentration of 0.4 nM in a 1× kinase reaction buffer. As a substrate cocktail, a RON-specific substrate mixed solution (40 uM ULight-labeled Poly GT, 100 nM ATP) was prepared at a concentration 2 times the final reaction concentration.
(§2) Thereafter, a 384-well-plate was prepared, and 2.5 μL of each of the diluted compounds of Examples was added to a corresponding well of experimental group wells, and 2.5 μL of a 4% DMSO solution was dispensed into high control wells and low control wells.
(§3) Thereafter, 2.5 μL of 0.4 nM RON was dispensed into each of the high control wells and the experimental group wells, and 2.5 μL of the 1× kinase reaction buffer was added to the low control wells, and all the wells were centrifuged at room temperature for 40 seconds at 1,000 RPM, and then incubated at room temperature for 20-30 minutes. Then, 5 μL of the substrate cocktail (2×) was dispensed into each well, and all the wells were centrifuged at room temperature for 40 seconds at 1,000 RPM, and then incubated at room temperature for 60 minutes. Thereafter, 5 μL of 30 mM EDTA was added to each well to terminate the reaction, and all the wells were then incubated again at room temperature for 5 minutes. Thereafter, 5 μL of a 4× phosphotyrosine antibody (Perkin Elmer) containing europium was added to each well, and all the wells were then incubated at room temperature for 60 minutes. After the incubation, the 384-well-plate was read with the Vison plate reader. In this case, the excitation wavelength was 340 nm, and the emission wavelength was 620 nm and 665 nm. The IC50 value of each compound of Examples was derived using the GraphPd Prism7 program.

cMET = cMET (Homo sapiens, UniProt P08581); experiment: Evaluation of inhibitory activity against MET (TR-FRET); type: biochemical; conditions: TR-FRET enzyme assay, cMET protein, TK peptide substrate, ATP
cMET, sequence (P08581 25-1390): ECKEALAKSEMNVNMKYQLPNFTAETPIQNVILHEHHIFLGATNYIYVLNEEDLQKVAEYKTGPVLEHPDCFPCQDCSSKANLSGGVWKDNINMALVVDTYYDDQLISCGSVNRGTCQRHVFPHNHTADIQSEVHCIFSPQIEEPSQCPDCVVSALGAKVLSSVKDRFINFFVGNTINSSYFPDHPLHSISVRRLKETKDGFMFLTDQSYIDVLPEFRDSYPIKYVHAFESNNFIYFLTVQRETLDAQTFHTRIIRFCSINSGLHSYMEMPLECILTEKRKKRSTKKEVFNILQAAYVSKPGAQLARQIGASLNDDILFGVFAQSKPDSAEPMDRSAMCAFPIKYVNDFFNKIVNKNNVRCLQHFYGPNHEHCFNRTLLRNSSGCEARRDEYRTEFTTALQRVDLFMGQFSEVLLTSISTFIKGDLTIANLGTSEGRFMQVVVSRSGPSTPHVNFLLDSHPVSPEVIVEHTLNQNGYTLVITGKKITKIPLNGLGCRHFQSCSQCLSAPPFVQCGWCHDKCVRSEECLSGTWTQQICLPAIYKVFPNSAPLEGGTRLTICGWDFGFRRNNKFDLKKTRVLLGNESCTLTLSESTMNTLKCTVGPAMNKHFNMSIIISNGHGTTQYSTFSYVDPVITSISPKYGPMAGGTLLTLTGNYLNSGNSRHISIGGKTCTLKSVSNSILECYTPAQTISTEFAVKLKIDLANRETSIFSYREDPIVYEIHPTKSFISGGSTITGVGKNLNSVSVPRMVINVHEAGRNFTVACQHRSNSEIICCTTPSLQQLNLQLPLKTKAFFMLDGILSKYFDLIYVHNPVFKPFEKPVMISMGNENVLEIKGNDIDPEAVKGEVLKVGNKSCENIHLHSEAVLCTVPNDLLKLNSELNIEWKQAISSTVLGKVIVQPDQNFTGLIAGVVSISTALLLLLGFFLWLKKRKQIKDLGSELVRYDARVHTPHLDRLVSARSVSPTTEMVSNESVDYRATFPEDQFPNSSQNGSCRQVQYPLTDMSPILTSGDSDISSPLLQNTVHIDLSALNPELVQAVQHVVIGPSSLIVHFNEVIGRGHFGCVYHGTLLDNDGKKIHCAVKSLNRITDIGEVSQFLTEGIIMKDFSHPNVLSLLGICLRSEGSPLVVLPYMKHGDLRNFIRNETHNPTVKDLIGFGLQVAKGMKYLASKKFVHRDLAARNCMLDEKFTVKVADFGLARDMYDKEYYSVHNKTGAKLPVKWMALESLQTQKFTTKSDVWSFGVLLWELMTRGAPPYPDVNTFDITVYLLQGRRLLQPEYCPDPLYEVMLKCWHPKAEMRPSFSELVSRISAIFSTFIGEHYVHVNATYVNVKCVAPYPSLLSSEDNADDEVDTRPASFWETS
Procedure: In addition, in order to measure the enzyme activity inhibition for cMET, the evaluation was performed in the same manner as the enzyme activity inhibition measurement experiment for RON.
as §1, with “7.4), 0.05% BSA, 0.005%” for “7.4), 0.01%”, “Tween-20, 1” for “Tween-20, 5”, “mM MnCl2, 20” for “mM Na3VO4, 2 mM EGTA, 10”
The cMET protein was diluted to a concentration of 263 nM in a cMET storage buffer (50 mM Tris-HCl (pH 7.5), 150 mM NaCl, 0.05% Brij35, 1 mM DTT, 10% Glycerol), and then diluted again to a concentration of 2 nM in a 1× kinase reaction buffer. As a substrate cocktail, a MET-specific substrate mixed solution (5 μM TK peptide, 10 mM ATP) was prepared at a concentration 2 times the final reaction concentration.
as §2
as §3, with “of 2” for “of 0.4”, “nM cMET” for “nM RON”, “of 90” for “of 30”

RON, sequence (Q04912 25-1400, species assumed): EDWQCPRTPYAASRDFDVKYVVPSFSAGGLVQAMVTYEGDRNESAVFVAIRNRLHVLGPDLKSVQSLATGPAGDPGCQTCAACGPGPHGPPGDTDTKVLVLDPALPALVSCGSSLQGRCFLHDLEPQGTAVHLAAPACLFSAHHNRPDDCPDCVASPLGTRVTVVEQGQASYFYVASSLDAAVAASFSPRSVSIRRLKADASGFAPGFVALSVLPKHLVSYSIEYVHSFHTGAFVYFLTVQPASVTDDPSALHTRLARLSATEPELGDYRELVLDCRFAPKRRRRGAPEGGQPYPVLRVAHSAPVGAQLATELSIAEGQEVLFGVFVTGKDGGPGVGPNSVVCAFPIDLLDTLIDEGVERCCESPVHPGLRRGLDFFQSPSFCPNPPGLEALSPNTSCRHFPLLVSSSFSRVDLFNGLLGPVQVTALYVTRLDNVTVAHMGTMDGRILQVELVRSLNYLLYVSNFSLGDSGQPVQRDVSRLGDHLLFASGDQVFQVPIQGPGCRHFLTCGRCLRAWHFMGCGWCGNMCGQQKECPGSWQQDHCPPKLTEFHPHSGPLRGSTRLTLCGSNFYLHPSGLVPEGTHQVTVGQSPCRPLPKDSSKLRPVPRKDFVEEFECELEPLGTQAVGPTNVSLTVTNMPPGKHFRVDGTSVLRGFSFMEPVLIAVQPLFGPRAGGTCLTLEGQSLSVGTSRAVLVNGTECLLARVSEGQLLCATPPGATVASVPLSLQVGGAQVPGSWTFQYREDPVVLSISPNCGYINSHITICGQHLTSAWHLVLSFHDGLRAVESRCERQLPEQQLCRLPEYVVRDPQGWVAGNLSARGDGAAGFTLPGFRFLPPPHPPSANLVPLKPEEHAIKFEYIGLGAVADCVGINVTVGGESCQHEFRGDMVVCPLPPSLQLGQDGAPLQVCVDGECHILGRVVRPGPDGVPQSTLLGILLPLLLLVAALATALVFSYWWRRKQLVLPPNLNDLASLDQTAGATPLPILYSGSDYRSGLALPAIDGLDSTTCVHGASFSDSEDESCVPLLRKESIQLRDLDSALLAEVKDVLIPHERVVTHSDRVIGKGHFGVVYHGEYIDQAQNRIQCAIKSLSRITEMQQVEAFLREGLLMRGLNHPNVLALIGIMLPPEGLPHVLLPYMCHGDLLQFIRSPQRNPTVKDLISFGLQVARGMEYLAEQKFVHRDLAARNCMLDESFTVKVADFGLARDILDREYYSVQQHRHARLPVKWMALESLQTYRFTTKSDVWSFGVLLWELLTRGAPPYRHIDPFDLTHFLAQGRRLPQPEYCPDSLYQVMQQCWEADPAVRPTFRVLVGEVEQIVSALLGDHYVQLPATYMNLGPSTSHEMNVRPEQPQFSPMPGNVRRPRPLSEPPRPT

| IC50 (RON) [µM] | IC50 (cMET) [µM] | Compound |
| --- | --- | --- |
| 5.12 | 5.23 | CCOc1ccn(-c2ccc(F)cc2)c(=O)c1C(=O)Nc1ccc(-c2ccc3nc(N)sc3n2)c(C)c1 [Example 1, N-(4-(2-aminothiazolo[5,4-b]pyridin-5-yl)-3-methylphenyl)-4-ethoxy-1-(4-fluorophenyl)-2-oxo-1,2-dihydropyridine-3-carboxamide] |
| – | 6.72 | CCOc1ccn(-c2ccc(F)cc2)c(=O)c1C(=O)Nc1ccc(Nc2ccc3nc(N)sc3n2)c(F)c1 [Example 3, N-(4-((2-aminothiazolo[5,4-b]pyridin-5-yl)amino)-3-fluorophenyl)-4-ethoxy-1-(4-fluorophenyl)-2-oxo-1,2-dihydropyridine-3-carboxamide] |
| – | 8.27 | Cc1ccc(C(=O)Nc2ccc(Oc3cc(Cl)nn4ccnc34)c(F)c2)c(=O)n1-c1ccc(F)cc1 [Example 6, N-(4-((6-chloroimidazo[1,2-b]pyridazin-8-yl)oxy)-3-fluorophenyl)-1-(4-fluorophenyl)-6-methyl-2-oxo-1,2-dihydropyridine-3-carboxamide] |
| – | 4.86 | COc1ccn(-c2ccc(F)cc2)c(=O)c1C(=O)Nc1ccc(-c2ccnc(-c3ccnc(N)n3)c2)c(F)c1 [Example 15, N-(4-(2-(2-aminopyrimidin-4-yl)pyridin-4-yl)-3-fluorophenyl)-1-(4-fluorophenyl)-4-methoxy-2-oxo-1,2-dihydropyridine-3-carboxamide] |
| – | 1.49 | Cc1ccc(C(=O)Nc2ccc(-c3ccnc(-c4ccnc(N)n4)c3)c(F)c2)c(=O)n1-c1ccc(F)cc1 [Example 16, N-(4-(2-(2-aminopyrimidin-4-yl)pyridin-4-yl)-3-fluorophenyl)-1-(4-fluorophenyl)-6-methyl-2-oxo-1,2-dihydropyridine-3-carboxamide] |
| 0.467 | 0.496 | CCOc1ccn(-c2ccc(F)cc2)c(=O)c1C(=O)Nc1ccc(-c2ccc3c(N)n[nH]c3c2)c(F)c1 [Example 18, N-(4-(3-amino-1H-indazol-6-yl)-3-fluorophenyl)-4-ethoxy-1-(4-fluorophenyl)-2-oxo-1,2-dihydropyridine-3-carboxamide] |
| – | 6.54 | CCOc1ccn(-c2ccc(F)cc2)c(=O)c1C(=O)Nc1ccc(-c2ccc3[nH]ncc3c2)c(F)c1 [Example 19] |
| – | 6.03 | CCOc1ccn(-c2ccc(F)cc2)c(=O)c1C(=O)Nc1ccc(-c2ccc3snc(N)c3c2)c(F)c1 [Example 21, N-(4-(3-aminobenzo[d]isothiazol-5-yl)-3-fluorophenyl)-4-ethoxy-1-(4-fluorophenyl)-2-oxo-1,2-dihydropyridine-3-carboxamide] |
| 0.044 | 0.011 | Cc1c(C(=O)Nc2ccc(Oc3ccnc(N)c3Cl)c(F)c2)c(=O)n(-c2ccccc2)n1C [Example 24, N-(4-((2-amino-3-chloropyridin-4-yl)oxy)-3-fluorophenyl)-1,5-dimethyl-3-oxo-2-phenyl-2,3-dihydro-1H-pyrazole-4-carboxamide] |
| 0.001 | 0.002 | Cc1ccc(C(=O)Nc2ccc(Oc3ccnc(N)c3Cl)c(F)c2)c(=O)n1-c1ccc(F)cc1 [Example 25, N-(4-((2-amino-3-chloropyridin-4-yl)oxy)-3-fluorophenyl)-1-(4-fluorophenyl)-6-methyl-2-oxo-1,2-dihydropyridine-3-carboxamide] |
| 0.003 | 0.003 | Nc1nccc(Oc2ccc(NC(=O)c3ccc(CO)n(-c4ccc(F)cc4)c3=O)cc2F)c1Cl [Example 26, N-(4-((2-amino-3-chloropyridin-4-yl)oxy)-3-fluorophenyl)-1-(4-fluorophenyl)-6-(hydroxymethyl)-2-oxo-1,2-dihydropyridine-3-carboxamide] |
| 0.002 | 0.006 | Nc1nccc(Oc2ccc(NC(=O)c3cc(C4CC4)cn(-c4ccc(F)cc4)c3=O)cc2F)c1Cl [Example 27, N-(4-((2-amino-3-chloropyridin-4-yl)oxy)-3-fluorophenyl)-5-cyclopropyl-1-(4-fluorophenyl)-2-oxo-1,2-dihydropyridine-3-carboxamide] |
| 0.008 | 0.018 | Nc1nccc(Oc2ccc(NC(=O)c3ccc(C(F)(F)F)n(-c4ccc(F)cc4)c3=O)cc2F)c1Cl [Example 28, N-(4-((2-amino-3-chloropyridin-4-yl)oxy)-3-fluorophenyl)-1-(4-fluorophenyl)-2-oxo-6-(trifluoromethyl)-1,2-dihydropyridine-3-carboxamide] |
| 0.082 | 0.054 | Cc1c(C(=O)Nc2ccc(Oc3ccnc(N)c3Cl)c(F)c2)c(=O)n(-c2ccccc2)n1CC(C)(C)O [Example 29, N-(4-((2-amino-3-chloropyridin-4-yl)oxy)-3-fluorophenyl)-1-(2-hydroxy-2-methylpropyl)-5-methyl-3-oxo-2-phenyl-2,3-dihydro-1H-pyrazole-4-carboxamide] |
| 0.025 | 0.012 | Cc1ccc(C(=O)Nc2ccc(Oc3ccnc(NC(=O)C4CC4)c3Cl)c(F)c2)c(=O)n1-c1ccc(F)cc1 [Example 30, N-(4-((3-chloro-2-(cyclopropanecarboxamido)pyridin-4-yl)oxy)-3-fluorophenyl)-1-(4-fluorophenyl)-6-methyl-2-oxo-1,2-dihydropyridine-3-carboxamide] |
| – | 3.55 | Cc1ccc(C(=O)Nc2ccc(Oc3ccnc(N(C(=O)C4CC4)C(=O)C4CC4)c3Cl)c(F)c2)c(=O)n1-c1ccc(F)cc1 [Example 31, N-(4-((3-chloro-2-(N-(cyclopropanecarbonyl)cyclopropanecarboxamido)pyridin-4-yl)oxy)-3-fluorophenyl)-1-(4-fluorophenyl)-6-methyl-2-oxo-1,2-dihydropyridine-3-carboxamide] |
| – | 1.69 | Cc1ccc(C(=O)Nc2ccc(NC(=O)c3cc(Br)cnc3N)c(F)c2)c(=O)n1-c1ccc(F)cc1 [Example 32, 2-amino-5-bromo-N-(2-fluoro-4-(1-(4-fluorophenyl)-6-methyl-2-oxo-1,2-dihydropyridine-3-carboxamido)phenyl)nicotinamide] |
| 7.88 | 1.56 | Cc1ccc(C(=O)Nc2ccc(NC(=O)c3cc(-c4cnn(C)c4)cnc3N)c(F)c2)c(=O)n1-c1ccc(F)cc1 [Example 34, 2-amino-N-(2-fluoro-4-(1-(4-fluorophenyl)-6-methyl-2-oxo-1,2-dihydropyridin-3-carboxamido)phenyl)-5-(1-methyl-1H-pyrazol-4-yl)nicotinamide] |
| 0.007 | 0.014 | Cc1ccc(C(=O)Nc2ccc(Oc3ncnc(N)c3Cl)c(F)c2)c(=O)n1-c1ccc(F)cc1 [Example 36, N-(4-((6-amino-5-chloropyrimidin-4-yl)oxy)-3-fluorophenyl)-1-(4-fluorophenyl)-6-methyl-2-oxo-1,2-dihydropyridine-3-carboxamide] |

— US20240293386A1, “NOVEL COMPOUND AS PROTEIN KINASE INHIBITOR” (LG CHEM, LTD., priority 2021, published 2024)
